molecular target: SOS1-KRas (G12C) (Homo sapiens (Human), UniProt Q07889); assay: SOS1-KRas (G12C) FRET Assay; assay type: binding; details: not given
Sequence (Q07889 564-1049, stated change not applied): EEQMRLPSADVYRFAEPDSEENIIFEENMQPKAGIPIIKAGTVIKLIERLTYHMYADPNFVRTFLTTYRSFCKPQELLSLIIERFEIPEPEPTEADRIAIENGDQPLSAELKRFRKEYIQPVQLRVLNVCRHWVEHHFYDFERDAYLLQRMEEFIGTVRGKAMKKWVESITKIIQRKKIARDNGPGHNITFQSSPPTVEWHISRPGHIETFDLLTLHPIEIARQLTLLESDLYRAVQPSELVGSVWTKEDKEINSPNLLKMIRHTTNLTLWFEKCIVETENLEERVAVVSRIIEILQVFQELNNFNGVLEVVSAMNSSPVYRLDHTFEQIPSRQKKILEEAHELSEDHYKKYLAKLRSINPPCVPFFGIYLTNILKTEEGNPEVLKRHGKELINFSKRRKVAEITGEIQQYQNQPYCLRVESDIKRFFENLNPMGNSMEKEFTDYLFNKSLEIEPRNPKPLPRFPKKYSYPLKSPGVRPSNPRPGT

Row | IC50 [nM] | Compound
1 | 99.4 | C[C@@H](NC(=O)c1cc(N2C[C@@H]3C[C@H]2CO3)c(F)cc1NC1CCN(C)CC1)c1cccc(C(F)F)c1F [Example 19, 5-((1S,4S)-2-oxa-5-azabicyclo[2.2.1]heptan-5-yl)-N—((R)-1-(3-(difluoromethyl)-2-fluorophenyl)ethyl)-4-fluoro-2-((1-methylpiperidin-4-yl)amino)benzamide]
2 | 20.2 | C[C@@H](NC(=O)c1cc(N2CCOCC2)c(F)cc1NC1CCN(C)CC1)c1cccc(C(F)F)c1F [Example 1, (R)—N-(1-(3-(difluoromethyl)-2-fluorophenyl)ethyl)-4-fluoro-2-((1-methylpiperidin-4-yl)amino)-5-morpholinobenzamide]
3 | 10.5 | C[C@@H](NC(=O)c1cc(-c2ccc(=O)n(C)c2)c(F)cc1NC1CCN(C)CC1)c1cccc(C(F)F)c1F [Example 62, (R)-N-(1-(3-(difluoromethyl)-2-fluorophenyl)ethyl)-4-fluoro-5-(1-methyl-6-oxo-1,6-dihydropyridin-3-yl)-2-((1-methylpiperidin-4-yl)amino)benzamide]
4 | 149 | Cc1c([C@@H](C)NC(=O)c2cc(-c3cnn(C)c3)c(F)cc2NC2CCN(C)CC2)cccc1C(F)(F)F [Example 11, (R)-4-fluoro-5-(1-methyl-1H-pyrazol-4-yl)-N-(1-(2-methyl-3-(trifluoromethyl)phenyl)ethyl)-2-((1-methylpiperidin-4-yl)amino)benzamide]
5 | 88 | C[C@@H](NC(=O)c1cc(N2CC3CC(C2)O3)c(F)cc1NC1CCN(C)CC1)c1cccc(C(F)F)c1F [Example 6, 5-(6-oxa-3-azabicyclo[3.1.1]heptan-3-yl)-N—((R)-1-(3-(difluoromethyl)-2-fluorophenyl)ethyl)-4-fluoro-2-((1-methylpiperidin-4-yl)amino)benzamide]
6 | 77.3 | C[C@@H](NC(=O)c1cc(N2CCOCC2)c(F)cc1NC12CC(N(C)C)(C1)C2)c1cccc(C(F)F)c1F [Example 53, (R)—N-(1-(3-(difluoromethyl)-2-fluorophenyl)ethyl)-2-((3-(dimethylamino)bicyclo[1.1.1]pentan-1-yl)amino)-4-fluoro-5-morpholinobenzamide]

same assay, conditions: inhibition of SOS1:KRAS interaction; 0.5 nM His10-SOS1 (res. 564-1049), 2.5 nM GST-KRAS (res. 1-169, G12C); 2 hrs at RT

Row | IC50 [nM] | Compound
7 | 21.9 | C[C@@H](NC(=O)c1cc(N2CCOC(F)(F)C2)c(F)cc1NC1CCN(C)CC1)c1cccc(C(F)F)c1F [Example 40, (R)-N-(1-(3-(difluoromethyl)-2-fluorophenyl)ethyl)-5-(2,2-difluoromorpholino)-4-fluoro-2-((1-methylpiperidin-4-yl)amino)benzamide]
8 | 138 | C[C@@H](NC(=O)c1cc(N2CC(F)(F)C[C@@H]2C)c(F)cc1NC1CCN(C)CC1)c1cccc(C(F)F)c1F [Example 37, 5-((S)-4,4-difluoro-2-methylpyrrolidin-1-yl)-N-((R)-1-(3-(difluoromethyl)-2-fluorophenyl)ethyl)-4-fluoro-2-((1-methylpiperidin-4-yl)amino)benzamide]
9 | 148 | CNC(=O)c1cc(C(=O)N[C@H](C)c2cccc(C(F)F)c2F)c(NC2CCN(C)CC2)cc1F [Example 73, (R)—N1-(1-(3-(difluoromethyl)-2-fluorophenyl)ethyl)-4-fluoro-N3-methyl-6-((1-methylpiperidin-4-yl)amino)isophthalamide]
10 | 15 | C[C@@H](NC(=O)c1cc(N2CCOCC2)c(C#N)cc1NC1CCN(C)CC1)c1cccc(C(F)F)c1F [Example 4, (R)-4-cyano-N-(1-(3-(difluoromethyl)-2-fluorophenyl)ethyl)-2-((1-methylpiperidin-4-yl)-amino)-5-morpholinobenzamide]
11 | 71.6 | C[C@@H](NC(=O)c1cc(O[C@H]2CCOC2)c(F)cc1NC1CCN(C)CC1)c1cccc(C(F)F)c1F [Example 10, N—((R)-1-(3-(difluoromethyl)-2-fluorophenyl)ethyl)-4-fluoro-2-((1-methylpiperidin-4-yl)amino)-5-(((S)-tetrahydrofuran-3-yl)oxy)benzamide]
12 | 888 | C[C@@H](NC(=O)c1cc(C(=O)N2CCC(F)(F)CC2)c(F)cc1NC1CCN(C)CC1)c1cccc(C(F)F)c1F [Example 74, (R)—N-(1-(3-(difluoromethyl)-2-fluorophenyl)ethyl)-5-(4,4-difluoropiperidine-1-carbonyl)-4-fluoro-2-((1-methylpiperidin-4-yl)amino)benzamide]
13 | 17.8 | C[C@@H](NC(=O)c1cc(N2CCOCC2)c(F)cc1N[C@H]1[C@@H]2C[C@H]1CN(C)C2)c1cccc(C(F)F)c1F [Example 18, N—((R)-1-(3-(difluoromethyl)-2-fluorophenyl)ethyl)-4-fluoro-2-(((1R,5S,6r)-3-methyl-3-azabicyclo[3.1.1]heptan-6-yl)amino)-5-morpholinobenzamide]
14 | 35.7 | C[C@@H](NC(=O)c1cc(N2CC3COCC(C3)C2)c(F)cc1NC1CCN(C)CC1)c1cccc(C(F)F)c1F [Example 38, 5-(3-oxa-7-azabicyclo[3.3.1]nonan-7-yl)-N-((R)-1-(3-(difluoromethyl)-2-fluorophenyl)ethyl)-4-fluoro-2-((1-methylpiperidin-4-yl)amino)benzamide]
15 | 70.7 | C[C@H](CN(C)C)Nc1cc(F)c(N2CCOCC2)cc1C(=O)N[C@H](C)c1cccc(C(F)F)c1F (single isomer, unassigned) [Example 49]
16 | 138 | C[C@@H](NC(=O)c1cc(C23CC(C2)C3)c(F)cc1NC1CCN(C)CC1)c1cccc(C(F)F)c1F [Example 68, (R)-5-(bicyclo[1.1.1]pentan-1-yl)-N-(1-(3-(difluoromethyl)-2-fluorophenyl)ethyl)-4-fluoro-2-((1-methylpiperidin-4-yl)amino)benzamide]
17 | 74.6 | Cc1c(C#N)cccc1[C@@H](C)NC(=O)c1cc(N2CCOCC2)c(F)cc1NC1CCN(C)CC1 [Example 46, (R)—N-(1-(3-cyano-2-methylphenyl)ethyl)-4-fluoro-2-((1-methylpiperidin-4-yl)amino)-5-morpholinobenzamide]
18 | 11 | C[C@@H](NC(=O)c1cc(-c2ccn(C)c(=O)c2)c(F)cc1NC1CCN(C)CC1)c1cccc(C(F)F)c1F [Example 60, (R)—N-(1-(3-(difluoromethyl)-2-fluorophenyl)ethyl)-4-fluoro-5-(1-methyl-2-oxo-1,2-dihydropyridin-4-yl)-2-((1-methylpiperidin-4-yl)amino)benzamide]
19 | 216 | C[C@@H](NC(=O)c1cc(C2CC2)c(F)cc1NC1CCN(C)CC1)c1cccc(C(F)F)c1F [Example 67, (R)-5-cyclopropyl-N-(1-(3-(difluoromethyl)-2-fluorophenyl)ethyl)-4-fluoro-2-((1-methylpiperidin-4-yl)amino)benzamide]
20 | 11.4 | C[C@@H](NC(=O)c1cc(-c2nnco2)c(F)cc1NC1CCN(C)CC1)c1cccc(C(F)F)c1F [Example 72, (R)—N-(1-(3-(difluoromethyl)-2-fluorophenyl)ethyl)-4-fluoro-2-((1-methylpiperidin-4-yl)amino)-5-(1,3,4-oxadiazol-2-yl)benzamide]
21 | 34.9 | C[C@@H](NC(=O)c1cc(-c2ccncn2)c(F)cc1NC1CCN(C)CC1)c1cccc(C(F)F)c1F [Example 66, (R)—N-(1-(3-(difluoromethyl)-2-fluorophenyl)ethyl)-4-fluoro-2-((1-methylpiperidin-4-yl)amino)-5-(pyrimidin-4-yl)benzamide]
22 | 20.6 | CC(=O)N1CCN(c2cc(C(=O)N[C@H](C)c3cccc(C(F)(F)F)c3C)c(NC3CCN(C)CC3)cc2F)CC1 [Example 22, (R)-5-(4-acetylpiperazin-1-yl)-4-fluoro-N-(1-(2-methyl-3-(trifluoromethyl)phenyl)ethyl)-2-((1-methylpiperidin-4-yl)amino)benzamide]

Row | Compound | IC50 [nM]
23 | C[C@@H](NC(=O)c1cc(N2CCOCC2)c(C#N)cc1N[C@H]1CN2CCC1CC2)c1cccc(C(F)F)c1F [Example 24, 4-cyano-N—((R)-1-(3-(difluoromethyl)-2-fluorophenyl)ethyl)-5-morpholino-2-(((R)-quinuclidin-3-yl)amino)benzamide] | 22.7
24 | C[C@@H](NC(=O)c1cc(N2CCOCC2)c(F)cc1N[C@@H]1CN2CCC1CC2)c1cccc(C(C)(F)F)c1F [Example 42, N—((R)-1-(3-(1,1-difluoroethyl)-2-fluorophenyl)ethyl)-4-fluoro-5-morpholino-2-(((S)-quinuclidin-3-yl)amino)benzamide] | 49.5
25 | C[C@@H](NC(=O)c1cc(C23CC(C2)C3)c(F)cc1N[C@H]1CN2CCC1CC2)c1cccc(C(F)F)c1F [Example 69, 5-(bicyclo[1.1.1]pentan-1-yl)-N—((R)-1-(3-(difluoromethyl)-2-fluorophenyl)ethyl)-4-fluoro-2-(((R)-quinuclidin-3-yl)amino)benzamide] | 120
26 | Cc1c(C#N)cccc1[C@@H](C)NC(=O)c1cc(N2CCOCC2)c(F)cc1N[C@@H]1CN2CCC1CC2 [Example 44, N—((R)-1-(3-cyano-2-methylphenyl)ethyl)-4-fluoro-5-morpholino-2-(((S)-quinuclidin-3-yl)amino)benzamide] | 210
27 | C[C@@H](NC(=O)c1cc(N2CCC2)c(F)cc1N[C@@H]1CN2CCC1CC2)c1cccc(C(F)F)c1F [Example 28, 5-(azetidin-1-yl)-N—((R)-1-(3-(difluoromethyl)-2-fluorophenyl)ethyl)-4-fluoro-2-(((S)-quinuclidin-3-yl)amino)benzamide] | 61.3
28 | C[C@@H](NC(=O)c1cc(N2CCOCC2)c(Cl)cc1N[C@H]1CN2CCC1CC2)c1cccc(C(F)F)c1F [Example 80, 4-chloro-N—((R)-1-(3-(difluoromethyl)-2-fluorophenyl)ethyl)-5-morpholino-2-(((R)-quinuclidin-3-yl)amino)benzamide] | 44.3
29 | C[C@@H](NC(=O)c1cc(N2CCCC2)c(F)cc1N[C@H]1CN2CCC1CC2)c1cccc(C(F)F)c1F [Example 33, N—((R)-1-(3-(difluoromethyl)-2-fluorophenyl)ethyl)-4-fluoro-5-(pyrrolidin-1-yl)-2-(((R)-quinuclidin-3-yl)amino)benzamide] | 35
